In ChEMBL document CHEMBL1201862, “PubChem BioAssay data set” (2004):
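A five-concentration, 48-hour dose response in 96-well plates underlies each endpoint, interpolated linearly between surrounding concentrations. GI50 marks 50% less growth.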 Activity calls are given as the source filed them. Rule as the data show it: active = GI50 up to about 1.1 µM and inactive = higher.

Experiments:
Assay in all cases: growth of human tumour cells (NCI), 48 h
[1] = tested on: 786-0
[2] = tested on: A498
[3] = tested on: A549
[4] = tested on: ACHN
[5] = tested on: CAKI-1
[6] = tested on: CCRF-CEM
[7] = tested on: COLO 205
[8] = tested on: DLD-1
[9] = tested on: DMS-114
[10] = tested on: EKVX
[11] = tested on: HCC 2998
[12] = tested on: HCT-116
[13] = tested on: HCT-15
[14] = tested on: HL-60
[15] = tested on: HOP-18
[16] = tested on: HOP-62
[17] = tested on: HOP-92
[18] = tested on: HT-29
[19] = tested on: IGROV-1
[20] = tested on: K562
[21] = tested on: KM-20L2
[22] = tested on: KM12
[23] = tested on: LOX IMVI
[24] = tested on: LXFL 529
[25] = tested on: M14
[26] = tested on: M19-MEL
[27] = tested on: MOLT-4
[28] = tested on: Malme-3M
[29] = tested on: NCI-H226
[30] = tested on: NCI-H23
[31] = tested on: NCI-H460
[32] = tested on: NCI-H522
[33] = tested on: OVCAR-3
[34] = tested on: OVCAR-4
[35] = tested on: OVCAR-5
[36] = tested on: OVCAR-8
[37] = tested on: RPMI-8226
[38] = tested on: RXF 393
[39] = tested on: SF-268
[40] = tested on: SF-295
[41] = tested on: SF-539
[42] = tested on: SK-MEL-28
[43] = tested on: SK-MEL-2
[44] = tested on: SK-MEL-5
[45] = tested on: SK-OV-3
[46] = tested on: SN12C
[47] = tested on: SNB-19
[48] = tested on: SNB-75
[49] = tested on: SNB-78
[50] = tested on: SR
[51] = tested on: TK-10
[52] = tested on: U-251
[53] = tested on: UACC-257
[54] = tested on: UACC-62
[55] = tested on: UO-31
[56] = tested on: XF498
[57] = tested on: SW-620
[58] = tested on: DMS-273
[59] = tested on: MCF7
[60] = tested on: NCI/ADR-RES

In the case of Cc1ccc([N+](=O)[O-])cc1NC(=O)C(=O)Cc1cc(=O)oc2cc(O)ccc12, the GI50 [1] is reported as > 100 µM (inactive), the GI50 [2] is reported as > 100 µM (inactive) and the GI50 [3] is reported as > 100 µM (inactive). For the same compound, the GI50 [4] was > 100 µM (inactive), the GI50 [5] was > 100 µM (inactive) and the GI50 [6] was 39.1 µM (inactive). The GI50 [7] was 42.8 µM (inactive), the GI50 [8] was > 100 µM (inactive) and the GI50 [9] was 18.5 µM (inactive). For the same compound, the GI50 [10] was > 100 µM (inactive), the GI50 [11] was > 100 µM (inactive) and the GI50 [12] was 24.2 µM (inactive). For the same compound, the GI50 [13] was > 100 µM, the GI50 [14] was > 100 µM (inactive) and the GI50 [15] was > 100 µM (inactive). For the same compound, the GI50 [16] was > 100 µM (inactive), the GI50 [17] was > 100 µM (inactive) and the GI50 [18] was > 100 µM (inactive). The GI50 [19] was > 100 µM (inactive), the GI50 [20] was 46.3 µM (inactive) and the GI50 [21] was 63.7 µM (inactive). The GI50 [22] was > 100 µM (inactive), the GI50 [23] was 26.6 µM (inactive) and the GI50 [24] was 56.5 µM (inactive). The GI50 [25] was > 100 µM (inactive), the GI50 [26] was > 100 µM (inactive) and the GI50 [27] was > 100 µM (inactive). The GI50 [28] was > 100 µM (inactive), the GI50 [29] was > 100 µM (inactive) and the GI50 [30] was > 100 µM (inactive). The GI50 [31] was 83.9 µM (inactive), the GI50 [32] was > 100 µM (inactive) and the GI50 [33] was > 100 µM (inactive). For the same compound, the GI50 [34] was > 100 µM (inactive), the GI50 [35] was > 100 µM (inactive) and the GI50 [36] was > 100 µM (inactive). For the same compound, the GI50 [37] was 32.1 µM (inactive), the GI50 [38] was 28.1 µM (inactive) and the GI50 [39] was 32 µM (inactive). The GI50 [40] was > 100 µM (inactive), the GI50 [41] was > 100 µM (inactive) and the GI50 [42] was 33.5 µM (inactive). The GI50 [43] was > 100 µM (inactive), the GI50 [44] was > 100 µM (inactive) and the GI50 [45] was > 100 µM (inactive). For the same compound, the GI50 [46] was > 100 µM (inactive), the GI50 [47] was > 100 µM (inactive) and the GI50 [48] was > 100 µM (inactive). The GI50 [49] was > 100 µM (inactive), the GI50 [50] was 32.4 µM (inactive) and the GI50 [51] was > 100 µM (inactive). The GI50 [52] was > 100 µM (inactive), the GI50 [53] was > 100 µM (inactive) and the GI50 [54] was > 100 µM (inactive). The GI50 [55] was > 100 µM (inactive) and the GI50 [56] was > 100 µM (inactive).
For O=c1[nH]cc(COCC(F)(F)C(F)(F)C(F)(F)C(F)F)c(=O)[nH]1, the GI50 [1] was > 100 µM (inactive), the GI50 [3] was > 100 µM (inactive) and the GI50 [4] was > 100 µM (inactive). The GI50 [5] was > 100 µM (inactive), the GI50 [6] was > 100 µM (inactive) and the GI50 [7] was > 100 µM (inactive). The GI50 [8] was > 100 µM (inactive), the GI50 [9] was > 100 µM (inactive) and the GI50 [10] was > 100 µM (inactive). The GI50 [11] was > 100 µM (inactive), the GI50 [12] was > 100 µM (inactive) and the GI50 [13] was > 100 µM. For the same compound, the GI50 [14] was > 100 µM (inactive), the GI50 [15] was > 100 µM (inactive) and the GI50 [16] was > 100 µM (inactive). The GI50 [17] was > 100 µM (inactive), the GI50 [18] was > 100 µM (inactive) and the GI50 [19] was > 100 µM (inactive). The GI50 [20] was > 100 µM (inactive), the GI50 [21] was > 100 µM (inactive) and the GI50 [22] was > 100 µM (inactive). The GI50 [23] was > 100 µM (inactive), the GI50 [24] was > 100 µM (inactive) and the GI50 [25] was > 100 µM (inactive). For the same compound, the GI50 [26] was > 100 µM (inactive), the GI50 [27] was > 100 µM (inactive) and the GI50 [28] was > 100 µM (inactive). The GI50 [30] was > 100 µM (inactive), the GI50 [32] was > 100 µM (inactive) and the GI50 [33] was > 100 µM (inactive). The GI50 [35] was > 100 µM (inactive), the GI50 [36] was > 100 µM (inactive) and the GI50 [37] was > 100 µM (inactive). The GI50 [38] was > 100 µM (inactive), the GI50 [39] was > 100 µM (inactive) and the GI50 [40] was > 100 µM (inactive). The GI50 [42] was > 100 µM (inactive), the GI50 [43] was > 100 µM (inactive) and the GI50 [44] was > 100 µM (inactive). The GI50 [45] was > 100 µM (inactive), the GI50 [46] was > 100 µM (inactive) and the GI50 [47] was > 100 µM (inactive). For the same compound, the GI50 [48] was > 100 µM (inactive), the GI50 [50] was > 100 µM (inactive) and the GI50 [57] was > 100 µM (inactive). For the same compound, the GI50 [51] was > 100 µM (inactive), the GI50 [52] was > 100 µM (inactive) and the GI50 [53] was > 100 µM (inactive). The GI50 [54] was > 100 µM (inactive) and the GI50 [55] was > 100 µM (inactive).
With OC[C@@H]1CC#C/C=C\C#CC[C@@H]1CO the GI50 [1] was > 100 µM (inactive), the GI50 [5] was > 100 µM (inactive) and the GI50 [7] was > 100 µM (inactive). The GI50 [8] was > 100 µM (inactive), the GI50 [9] was > 100 µM (inactive) and the GI50 [10] was > 100 µM (inactive). The GI50 [11] was > 100 µM (inactive), the GI50 [12] was > 100 µM (inactive) and the GI50 [13] was > 100 µM. For the same compound, the GI50 [14] was > 100 µM (inactive), the GI50 [15] was > 100 µM (inactive) and the GI50 [16] was > 100 µM (inactive). The GI50 [17] was < 0.01 µM (active), the GI50 [18] was > 100 µM (inactive) and the GI50 [19] was > 100 µM (inactive). The GI50 [20] was > 100 µM (inactive), the GI50 [22] was > 100 µM (inactive) and the GI50 [25] was > 100 µM (inactive). The GI50 [26] was > 100 µM (inactive), the GI50 [27] was > 100 µM (inactive) and the GI50 [28] was > 100 µM (inactive). The GI50 [30] was > 100 µM (inactive), the GI50 [33] was > 100 µM (inactive) and the GI50 [34] was > 100 µM (inactive). For the same compound, the GI50 [35] was > 100 µM (inactive), the GI50 [36] was > 100 µM (inactive) and the GI50 [37] was > 100 µM (inactive). For the same compound, the GI50 [38] was > 100 µM (inactive), the GI50 [39] was < 0.01 µM (active) and the GI50 [40] was > 100 µM (inactive). For the same compound, the GI50 [41] was > 100 µM (inactive), the GI50 [42] was > 100 µM (inactive) and the GI50 [43] was > 100 µM (inactive). The GI50 [44] was > 100 µM (inactive), the GI50 [45] was > 100 µM (inactive) and the GI50 [47] was > 100 µM (inactive). For the same compound, the GI50 [49] was > 100 µM (inactive), the GI50 [51] was > 100 µM (inactive) and the GI50 [52] was > 100 µM (inactive). For the same compound, the GI50 [55] was > 100 µM (inactive) and the GI50 [56] was 0.471 µM (active).
For O=P1(Oc2ccc(Cl)cc2Cl)Oc2cc3ccccc3cc2O1, the GI50 [2] was 29.1 µM (inactive), the GI50 [3] was 66.2 µM (inactive) and the GI50 [5] was > 71.8 µM (inactive). The GI50 [6] was 35.5 µM (inactive), the GI50 [7] was 97.9 µM (inactive) and the GI50 [8] was 56.8 µM (inactive). The GI50 [9] was 27.5 µM (inactive), the GI50 [58] was 59.6 µM (inactive) and the GI50 [10] was 33.9 µM (inactive). The GI50 [11] was 20.8 µM (inactive), the GI50 [12] was > 78.2 µM (inactive) and the GI50 [13] was 50 µM. The GI50 [14] was 21.5 µM (inactive), the GI50 [15] was 62.2 µM (inactive) and the GI50 [16] was 71.8 µM (inactive). For the same compound, the GI50 [17] was 28.5 µM (inactive), the GI50 [18] was > 72.9 µM (inactive) and the GI50 [19] was 64.7 µM (inactive). For the same compound, the GI50 [20] was 46.2 µM (inactive), the GI50 [21] was > 100 µM (inactive) and the GI50 [22] was 43.8 µM (inactive). The GI50 [23] was 68.9 µM (inactive), the GI50 [59] was 31.8 µM (inactive) and the GI50 [27] was 23.5 µM (inactive). The GI50 [28] was > 100 µM (inactive), the GI50 [29] was > 76.6 µM (inactive) and the GI50 [30] was 43.9 µM (inactive). The GI50 [31] was 49.9 µM (inactive), the GI50 [32] was 26.5 µM (inactive) and the GI50 [60] was 84.1 µM (inactive). The GI50 [33] was 28.4 µM (inactive), the GI50 [34] was 76 µM (inactive) and the GI50 [35] was > 100 µM (inactive). For the same compound, the GI50 [36] was 69 µM (inactive), the GI50 [37] was 18.8 µM (inactive) and the GI50 [38] was > 58.9 µM (inactive). The GI50 [39] was > 100 µM (inactive), the GI50 [40] was 59.3 µM (inactive) and the GI50 [41] was > 84.9 µM (inactive). The GI50 [42] was > 100 µM (inactive), the GI50 [43] was 81.1 µM (inactive) and the GI50 [44] was 59 µM (inactive). For the same compound, the GI50 [45] was > 100 µM (inactive), the GI50 [46] was > 94.4 µM (inactive) and the GI50 [47] was > 100 µM (inactive). For the same compound, the GI50 [48] was 70.8 µM (inactive), the GI50 [49] was > 100 µM (inactive) and the GI50 [57] was 70.1 µM (inactive). The GI50 [52] was 81.7 µM (inactive), the GI50 [53] was > 100 µM (inactive) and the GI50 [54] was 43.7 µM (inactive). For the same compound, the GI50 [55] was 24.9 µM (inactive) and the GI50 [56] was 33.1 µM (inactive).
